Measured values from patent US20130253022A1 (FOX CHASE CHEMICAL DIVERSITY CENTER, INC., priority 2010, published 2013).

Legend:
Hippocampal Cultures [1] = experiment: Neuroprotection from hydrogen peroxide (oxidative stress), propidium iodide assay; assay type: cell-based; conditions: Rattus norvegicus, read-out: NP from Hydrogen Peroxide PI EC50
Text: (§1) Cell cultures: All compounds are screened with dissociated hippocampal cultures derived from embryonic day 18 rats as the primary test system. With this preparation, primary neurons are used to test for toxicity as well as neuroprotection in a highly relevant experimental system to epilepsy. In brief, hippocampal tissue are obtained commercially through Brain Bits (Springfield, Ill.) and cultures prepared as previously described by Brewer (Brewer, G. J. Serum-free B27/neurobasal medium supports differentiated growth of neurons from the striatum, substantia nigra, septum, cerebral cortex, cerebellum and dentate gyms, J. Neurosci. Res. 1995, 42, 674-683). The hippocampal neurons are platted at low density (10,000 cell/well) in a 96-well format and maintained in serum-free medium consisting of Neurobasal Medium supplemented with B27 and GlutaMAX (Gibco). Pre-coated poly-L-lysine coated plates are used because of the preferential adherence and survival of hippocampal neurons on this matrix support.
(§2) Potent neuroprotection is the distinguishing characteristic that separates this program's anticonvulsants from all other commercial drugs for epilepsy. The experimental details and the rationale for the implemented assays are essential in differentiating these compounds from that of others. The central objective of all neuroprotective assays was their relevancy to excitotoxicity and oxidative stress related to epilepsy. Both the amount of glutamate and hydrogen peroxide used in the assays, as well as the time of treatment and duration of the experiment, were designed to be relevant to epilepsy. Further, all time parameters employed in these studies were empirically determined to be within the limits of reversible toxic events, yet using amounts of glutamate and hydrogen peroxide that were relevant to the disease. In regard to glutamate toxicity, a critical feature was the duration of treatment of the hippocampal neurons. The rational for using a short 5 min treatment with glutamate was based on the observation of Randall and Thayer (Randall, R. D.; Thayer, S. A. Glutamate-induced calcium transient triggers calcium overload and neurotoxicity in rat hippocampal neurons, J. Neurosci. 1992, 12, 1882-1895). […] The rationale is that this intense burst of glutamate and resulting calcium overload is relevant to seizures and therefore was important data to capture in the screening assay. The amount of glutamate (30 μM) employed in our screening was based on the basal levels of glutamate observed in microdialysis measurements of hippocampus from epileptogenic patients (Cavus et al. Decreased hippocampal volume on MRI is associated with increased extracellular glutamate in epilepsy patients, Epilepsia, 2008, 49, 1358-1366). In regard to hydrogen peroxide, the amount employed (10 μM) was detected in the hippocampus of rats after kainate-induced status epilepticus (Jarrett et. al., Mitochondrial DNA damage and impaired base excision repair during epileptogenesis, Neurobiol. Dis. 2008, 30, 130-138). To produce neural damage and death with these amounts of glutamate and hydrogen peroxide, the cultures were changed to a medium with significant depletion of antioxidant components in the defined medium supplement B-27 just prior to treatment with the compounds. This was performed to obtain a significant and reproducible toxic signal in the hippocampal neurons and because loss of antioxidant control may be a component of epileptogenesis (Waldbaum and Patel, Mitochondria, oxidative stress and temporal lobe epilepsy, Epilepsy Res. 2010 88, 23-45; Wu et al., Mitochondrial DNA mutation-elicited oxidative stress, oxidative damage, and altered gene expression in cultured cells of patients with MERRF syndrome, Mol. Neurobiol. 2010, 41, 256-266). Neuroprotection studies with hydrogen peroxide were conducted with cultures that were between day 12 and day 18. Studies of neuroprotection glutamate were conducted between day 19 and day 22. […]

Hippocampal Cultures [2] = experiment: Neuroprotection from hydrogen peroxide (oxidative stress), CFDA assay; assay type: cell-based; conditions: Rattus norvegicus, read-out: NP from Hydrogen Peroxide CFDA EC50
Text: as §1, §2

Hippocampal Cultures [3] = experiment: Neuroprotection from glutamate excitotoxicity, CFDA (neuronal viability) assay; assay type: cell-based; conditions: Rattus norvegicus, read-out: NP from Glutamate CFDA EC50
Text: as §1
as §2, with “compounds.” for “compounds. This was performed to obtain a significant and reproducible toxic signal in the hippocampal neurons and because loss of antioxidant control may be a component of epileptogenesis (Waldbaum and Patel, Mitochondria, oxidative stress and temporal lobe epilepsy, Epilepsy Res. 2010 88, 23-45; Wu et al., Mitochondrial DNA mutation-elicited oxidative stress, oxidative damage, and altered gene expression in cultured cells of patients with MERRF syndrome, Mol. Neurobiol. 2010, 41, 256-266). Neuroprotection studies with hydrogen peroxide were conducted with cultures that were between day 12 and day 18. Studies of neuroprotection glutamate were conducted between day 19 and day 22.”

Hippocampal Cultures [4] = experiment: Neuroprotection from glutamate excitotoxicity, propidium iodide (cell death) assay; assay type: cell-based; conditions: Rattus norvegicus, read-out: NP from Glutamate PI EC50
Text: as §1, §2

6-Hz psychomotor seizure = experiment: 6 Hz psychomotor seizure test, mouse; assay type: in vivo, mice; conditions: ip
Method: Methods to measure anticonvulsant activity: All tests were conducted by the Anticonvulsant Screening Program (ASP) of the National Institute of Neurological Disease and Stroke at the National Institutes of Health. The 6 Hz Seizure Test: Compounds were further tested in the 6-Hz psychomotor seizure model. (Barton et al. Pharmacological characterization of the 6 Hz psychomotor seizure model of partial epilepsy. Epilepsy Res. 2001, 47, 217-227). This model is used to detect […] that may be useful for the treatment of therapy-resistant partial seizures. For this test, an alternative electrical stimulation paradigm is used with a low frequency (6 Hz), long duration (3 seconds) corneal stimulation. The seizure evoked by this low frequency stimulation is characterized by immobility, forelimb clonus, Straub tail and facial automatisms. Mice are tested from 15 min to 4 hours following an intraperitoneal dose of 100 mg/kg. Abolition of the clonic seizures indicates the ability of a compound to prevent partial or psychomotor seizures.

[5] = system: MES-induced seizure spread; experiment: Maximal electroshock seizure (MES) test, rat; assay type: in vivo, rats; conditions: po
Method: (§3) Seizure-related assays, Maximal electroshock test: The most definitive assay for anti-seizure activity is the maximal electroshock (MES) test (Swinyard, E. A. Laboratory evaluation of antiepileptic drugs: review of laboratory methods, Epilepsia, 1969, 10, 107-119). […] With both rodent assays, the duration of action is of high importance as well as the potency of the response.
(§4) Methods to measure anticonvulsant activity: All tests were conducted by the Anticonvulsant Screening Program (ASP) of the National Institute of Neurological Disease and Stroke at the National Institutes of Health.
(§5) The Maximal Electroshock Seizure (MES) or Maximal Seizure Pattern Test: The MES is a model for generalized tonic-clonic seizures (Putnam and Merritt. Experimental determination of the anticonvulsant properties of some phenyl derivatives. Science 1937, 85, 113-118). It is highly reproducible with consistent endpoints. The behavioral and electrographic seizures generated in this model are consistent with the human disorder. This model identifies those compounds which prevent seizure spread.
(§6) In the MES test, an electrical stimulus of 0.2 s in duration (50 mA in mice and 150 mA in rat at 60 Hz) is delivered via corneal electrodes primed with an electrolyte solution containing an anesthetic agent. Mice are tested at 30 minutes and 4 hours following doses of 30, 100 and 300 mg/kg of test compound. Test compounds are administered intraperitoneally to the mice. Rats are tested at time intervals between 0.25 and 4 hours following a standard oral dose of 30 mg/kg. Abolition of the hindlimb tonic extensor component indicates the test compound's ability to inhibit MES-induced seizure spread.

[6] = system: pentylenetetrazol-induced clonic seizures; experiment: Subcutaneous pentylenetetrazol seizure test (scPTZ), mouse; assay type: in vivo, Carworth Farms No. 1 mice; conditions: pentylenetetrazol 85 mg/kg s.c., test compound intraperitoneally, read-out: Mouse PTZ ED50, s.c.
Method: Methods to measure anticonvulsant activity: All tests were conducted by the Anticonvulsant Screening Program (ASP) of the National Institute of Neurological Disease and Stroke at the National Institutes of Health. The subcutaneous pentylenetetrazol (metrazol) seizure test (scPTZ). This model primarily identifies compounds that raise seizure threshold. The behavioral seizure produced is not typical of absence epilepsy but clonic in nature. With some minor exceptions, the pharmacological profile of the scPTZ seizure model is consistent with the human condition. The scPTZ test utilizes a dose of pentylenetetrazol (85 mg/kg in Carworth Farms No. 1 mice and 70 mg/kg in Sprague-Dawley rats). This produces clonic seizures lasting for a period of at least five seconds in 97 percent of animals tested. At the anticipated time of testing the convulsant is administered subcutaneously. The test compound is administered intraperitoneally in mice and orally in rats. Animals are observed over a 30 minute period. Absence of clonic spasms in the observed time period indicates a compound's ability to abolish the effect of pentylenetetrazol on seizure threshold (Swinyard E A. Laboratory evaluation of antiepileptic drugs: review of laboratory methods. Epilepsia, 1969, 10, 107-119).

[7] = system: MES-induced seizure spread; experiment: Maximal electroshock seizure (MES) test, mouse; assay type: in vivo, mice
Method: as §3, §4, §5, §6

hippocampal neurons = experiment: Heavy metal toxicity in hippocampal cultures, neuronal viability (CFDA); conditions: test concentration of metal ions 10 μM, medium without antioxidants
Text: All compounds were screened with dissociated hippocampal cultures derived from embryonic day 18 rats as the primary test system. With this preparation, primary neurons were used to test for prevention of heavy metal toxicity by the disclosed compounds. In brief, hippocampal tissue was obtained commercially through Brain Bits (Springfield, Ill.) and cultures prepared as previously described (Brewer, G. J. Serum-free B27/neurobasal medium supports differentiated growth of neurons from the striatum, substantia nigra, septum, cerebral cortex, cerebellum and dentate gyms, J. Neurosci. Res., 1995, 42, 674-683). The hippocampal neurons were platted at low density (10,000 cell/well) in a 96-well format and maintained in serum-free medium consisting of Neurobasal Medium supplemented with B27 and GlutaMAX (Gibco). Pre-coated poly-L-lysine coated plates are used because of the preferential adherence and survival of hippocampal neurons on this matrix support.
Heavy metal toxicity is associated with the occurrence of seizures (Mathie et al. Zinc and copper: pharmacological probes and endogenous modulators of neuronal excitability. Pharmacol. Ther. 2006, 111, 567-583). […] To establish the dose-dependency of test agents, day 18 hippocampal cultures were utilized to study the toxicity produced after treatment with the heavy metals and neuroprotection after treatment with test compounds. […] Prior to treatment, the B27/Neural Basal media of the cultures were replaced with B27 neural basal medium without antioxidants for 18 hours. […] Further, the removal of antioxidants in the medium was performed to obtain a significant and reproducible toxic signal for heavy metal treatment of the hippocampal neurons.
Toxicity produced by heavy metals is measured by decreases in neuronal viability. Carboxyfluorescein (CFDA) was used a vital stain for all cell toxicity and neuroprotection studies. With the use of the CytoFluor fluorimeter, the CFDA assay was employed to assess the viability of neurons. CFDA is a dye that becomes fluorescent upon cell entry and cleavage by cytosolic esterases (Petroski and Geller. Selective labeling of embryonic neurons cultures on astrocyte monolayers with 5(6)-carboxyfluorescein diacetate [CFDA]. J. Neurosci. Methods 1994, 52, 23-32). Neuronal specificity is obtained relative to astrocytes because the cleaved dye is extruded extracellularlly by glia with time, while dye in neurons remains intracellular.

[8] = 10 μM hydrogen peroxide, hippocampal cultures, 4 hour test period
[9] = 30 μM glutamate 5 min, hippocampal cultures, 4 hour test period

## NS(=O)(=O)NCC(F)(F)c1csc2ccccc12 [Example 6, 2-Benzo[b]thiophen-3-yl-2,2-difluoro-ethyl sulfamide]
Hippocampal Cultures [1]; 4 h
  EC50: 1000 pM
Hippocampal Cultures [2]; 4 h
  EC50: 100 pM
Hippocampal Cultures [3]
  EC50: 100 pM
Hippocampal Cultures [4]
  EC50: 100 pM

## NS(=O)(=O)NCC(F)(F)c1ccccc1 [Example 5, 2,2-difluoro-2-phenyl-ethyl-1-sulfamide]
6-Hz psychomotor seizure
  ED50: 16 mg/kg
Hippocampal Cultures [1]; [8]
  EC50: 30 pM
Hippocampal Cultures [2]; [8]
  EC50: 100 pM
Hippocampal Cultures [3]; [9]
  EC50: 100 pM
Hippocampal Cultures [4]; [9]
  EC50: 100 pM
[5]
  ED50: 26 mg/kg
[6]
  ED50: 41 mg/kg
[7]; Mouse Maximal Electroshock (MES) test at 100 mg/kg, i.p.
  Duration of action MES: 4 h
[7]; ip, mouse
  ED50: 49 mg/kg

## O.O.O.O.O.O.O=S(=O)([O-])[O-].[Fe+2] [Iron sulfate hexahydrate]
Hippocampal neurons
  Loss of neuronal viability from metal: 31%

## COc1ccccc1C(F)(F)CNS(N)(=O)=O [Example 4, 2,2-Difluoro-2-(2-methoxyphenyl)-ethyl-1-sulfamide]
Hippocampal Cultures [1]; 4 h
  EC50: 1000 pM
Hippocampal Cultures [2]; 4 h
  EC50: 100 pM
Hippocampal Cultures [4]
  EC50: 1000 pM

## O.O.O.O.O.O.[Cl-].[Cl-].[Co+2] [Cobalt Chloride hexahydrate]
Hippocampal neurons
  Loss of neuronal viability from metal: 36%

## O.O.O.O.O.O.[Cl][Ni][Cl] [Nickel Chloride hexahydrate]
Hippocampal neurons
  Loss of neuronal viability from metal: 33%

## CC(=O)[O-].CC(=O)[O-].O.[Cu+2] [Copper Acetate monohydrate]
Hippocampal neurons
  Loss of neuronal viability from metal: 47%

## NS(=O)(=O)NCC(F)c1ccccc1F (stereo not drawn) [Example 3, 2-Fluoro-2-(2-fluoro-phenyl)-ethylsulfamide]
Hippocampal Cultures [1]; 4 h
  EC50: 10 pM
Hippocampal Cultures [2]; 4 h
  EC50: 10 pM
Hippocampal Cultures [3]
  EC50: 3000 pM
Hippocampal Cultures [4]
  EC50: 100 pM
